The results in this text go back to US20250215030A1, “STAT MODULATORS AND USES THEREOF” (Recludix Pharma, Inc., priority 2022, published 2025).

Where two headings read alike, the source gives them in different places.

The target of one experiment is T1, pSTAT3 (pY705-STAT3) (Homo sapiens, UniProt P40763).
T1 construct: host or cells: cryopreserved PBMC
As to the kind of experiment: MSD-pSTAT-PBMC Assay (pSTAT3, IL-6 stimulated). The experiment is classed as cell-based. From the text:
Cryopreserved Peripheral Blood Mononuclear Cells (PBMC) are from AllCells. Recombinant Human IL-4 and IL-6 are from Peprotech. Mouse monoclonal anti-STAT3 antibody, rabbit monoclonal anti-pY705-STAT3 antibody, rabbit monoclonal Anti-pY641-STAT6 antibody, and lysis buffer are from Cell Signaling Technology (CST). Mouse monoclonal anti-STAT6 antibody is from BioLegend. Assay plates, blocker, and anti-rabbit secondary antibody are from Meso Scale Discovery (MSD).
Cryopreserved PBMCs were thawed out and allowed to recover overnight in IMDM+10% heat-inactivated FBS prior to plating 50,000 (STAT3) or 25,000 (STAT6) cells per well in 96-well U-bottom tissue culture plates. Cells were treated with compound for 3 hrs, then stimulated with 10 ng/mL IL-6 (STAT3) or 1 ng/mL IL-4 (STAT6) for 10 min. Cells were then spun down and washed with ice-cold PBS prior to lysing the cell pellet with 1× lysis buffer (CST) with 1× HALT protease and phosphatase inhibitor cocktail (Thermo). Lysates were transferred to and incubated overnight at 4° C. with shaking in QuickPlex 96-well high bind assay plates (MSD) pre-coated overnight with 30 μL per well of 0.6 μg/mL mouse monoclonal anti-STAT3 antibody (STAT3) or 2 μg/mL mouse monoclonal anti-STAT6 antibody (STAT6) in 1×PBS, and pre-blocked for 1 hour with 3% Blocker-A (MSD). Captured protein in the assay plates were then washed and probed with 25 μL per well of 0.25 μg/ml rabbit monoclonal anti-pY705-STAT3 antibody (STAT3) or 0.18 μg/ml rabbit monoclonal Anti-pY641-STAT6 antibody (STAT6) in 1% Blocker-A for 1 hour at room temperature with shaking, then washed and probed with 25 ul per well of 1 ug/mi Sulfo-TAG Labeled Goat Anti-Rabbit Antibody (MSD) in 1% Blocker-A for 1 hour at room temperature with shaking. Assay plates were then washed and 150 μL of 1× Read Buffer-T (MSD) was added to each well prior to reading on an SQ120 MSD Plate Reader. Assay signal from each sample was subtracted by the signal from unstimulated control wells and normalized to DMSO control wells. IC50 values were calculated using Graph Pad Prism Dose-Response Nonlinear Regression with variable slope. For both pSTAT3 and pSTAT6 A=≤100 nM; B=>100-1000 nM; C=>1000-3000 nM; and D=>3 μM.

For experiment [1], the target named is T2, Recombinant STAT3 protein (STAT3(G127-I722)) (Homo sapiens, UniProt P40763).
T2 construct: STAT3(G127-I722)
As to the kind of experiment: STAT3 Fluorescence Polarization (FP) Assay. The experiment is classed as binding. As to conditions: STAT3(G127-I722) 25 nM, probe 5-FAM-GpYLPQTV-NH2 2 nM, 45-minute incubation. Put shortly: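 Serially diluted compounds (1% DMSO) were mixed with 2 nM fluorescent phosphotyrosine peptide and 25 nM STAT3 construct G127-I722, pH 7.4, incubated 45 min at room temperature. IC50 values from fitted polarization curves are reported as categories A (≤100 nM), B, C, D (>10 μM).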
On the technique in general: Polarisation of emitted light reports the rotation of a fluorescent probe.

In experiment [2] the target is T3, Recombinant STAT6 protein (STAT6(W123-T658)) (Homo sapiens, UniProt P42226).
T3 construct: STAT6(W123-T658)
T3 sequence (P42226 123-658): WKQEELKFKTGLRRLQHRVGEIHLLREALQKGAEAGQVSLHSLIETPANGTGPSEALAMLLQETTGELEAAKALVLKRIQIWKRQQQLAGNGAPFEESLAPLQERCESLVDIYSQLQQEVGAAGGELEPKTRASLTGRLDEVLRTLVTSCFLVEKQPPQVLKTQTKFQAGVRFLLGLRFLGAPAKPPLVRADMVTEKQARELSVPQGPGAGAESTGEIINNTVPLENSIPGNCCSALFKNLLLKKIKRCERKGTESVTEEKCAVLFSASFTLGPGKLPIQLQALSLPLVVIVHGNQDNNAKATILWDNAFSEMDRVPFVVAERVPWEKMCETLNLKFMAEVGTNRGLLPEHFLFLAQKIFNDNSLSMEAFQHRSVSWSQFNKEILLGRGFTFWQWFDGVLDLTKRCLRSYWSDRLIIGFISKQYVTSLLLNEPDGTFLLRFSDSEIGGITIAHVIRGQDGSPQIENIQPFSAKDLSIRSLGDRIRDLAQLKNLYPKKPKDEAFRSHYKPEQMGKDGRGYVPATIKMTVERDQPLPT
As to the kind of experiment: STAT6 Fluorescence Polarization (FP) Assay. The experiment is classed as binding. As to conditions: STAT6(W123-T658) 250 nM, probe 5-FAM-ApYKPFQDLI-NH2 2 nM, 45-minute incubation. The essentials: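 Competitive displacement of a fluorescent phosphotyrosine peptide (2 nM) from recombinant STAT6 W123-T658 (250 nM), 45 min at room temperature in 10 mM HEPES pH 7.4, 50 mM NaCl, 2 mM DTT. mP fitted against log compound for IC50, grouped A (≤300 nM) to D (>30 μM).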

T1 sequence (P40763 whole entry): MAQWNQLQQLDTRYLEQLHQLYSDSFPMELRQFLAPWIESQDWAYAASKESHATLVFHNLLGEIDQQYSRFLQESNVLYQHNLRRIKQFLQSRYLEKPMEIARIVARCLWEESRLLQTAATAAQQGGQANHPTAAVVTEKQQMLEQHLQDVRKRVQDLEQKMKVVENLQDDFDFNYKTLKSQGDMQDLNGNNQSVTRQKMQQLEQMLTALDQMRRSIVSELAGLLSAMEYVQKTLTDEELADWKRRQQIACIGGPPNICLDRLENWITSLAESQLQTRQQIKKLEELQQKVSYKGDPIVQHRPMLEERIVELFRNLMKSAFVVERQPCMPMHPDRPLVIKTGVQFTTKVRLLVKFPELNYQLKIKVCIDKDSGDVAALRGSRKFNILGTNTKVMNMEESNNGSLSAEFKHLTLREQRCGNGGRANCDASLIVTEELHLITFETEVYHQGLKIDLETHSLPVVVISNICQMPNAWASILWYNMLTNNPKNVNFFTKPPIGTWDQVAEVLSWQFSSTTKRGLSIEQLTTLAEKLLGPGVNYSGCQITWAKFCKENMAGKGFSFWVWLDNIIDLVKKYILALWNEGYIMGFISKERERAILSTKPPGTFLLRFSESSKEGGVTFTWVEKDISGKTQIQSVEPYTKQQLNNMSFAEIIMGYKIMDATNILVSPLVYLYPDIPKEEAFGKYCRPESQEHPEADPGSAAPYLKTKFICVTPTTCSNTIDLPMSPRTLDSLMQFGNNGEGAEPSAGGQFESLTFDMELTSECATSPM
T2 sequence (P40763 127-722, species assumed): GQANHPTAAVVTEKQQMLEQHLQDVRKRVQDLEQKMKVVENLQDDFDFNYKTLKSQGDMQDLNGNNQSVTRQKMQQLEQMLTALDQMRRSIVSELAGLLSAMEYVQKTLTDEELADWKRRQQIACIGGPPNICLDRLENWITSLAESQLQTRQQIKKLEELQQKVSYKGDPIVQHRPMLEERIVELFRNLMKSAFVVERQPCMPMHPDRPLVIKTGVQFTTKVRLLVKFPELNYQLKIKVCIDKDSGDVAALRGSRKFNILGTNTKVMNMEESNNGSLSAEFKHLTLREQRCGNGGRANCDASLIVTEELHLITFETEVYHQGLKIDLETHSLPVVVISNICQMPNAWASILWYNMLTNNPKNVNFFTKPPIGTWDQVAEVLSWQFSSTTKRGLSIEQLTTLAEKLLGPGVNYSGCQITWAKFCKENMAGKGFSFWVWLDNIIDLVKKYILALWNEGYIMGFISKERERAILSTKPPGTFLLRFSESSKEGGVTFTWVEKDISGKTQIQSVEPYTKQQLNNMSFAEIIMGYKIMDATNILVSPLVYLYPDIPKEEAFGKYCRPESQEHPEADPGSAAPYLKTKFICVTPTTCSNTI

As for `CCCOC(=O)[C@H](C)NP(=O)(Oc1ccccc1)C(F)c1ccc2sc(C(=O)N[C@H]3C[C@@H]4C[C@@H]4C[C@H]4CC[C@@H](C(=O)N5CC(c6cnccc6N6CCC6)C5)N4C3=O)cc2c1` (single isomer, unassigned) [Compound 426], the IC50 against pSTAT3 (pY705-STAT3) was less than 0.1 µM.

Take `CCCOC(=O)[C@H](C)N[P@](=O)(Oc1ccccc1)[C@@H](F)c1ccc2sc(C(=O)N[C@H]3C[C@@H]4C[C@@H]4C[C@H]4CC[C@@H](C(=O)N5C[C@H](c6cccnc6)[C@@H](C#N)C56CC6)N4C3=O)cc2c1` (single isomer, unassigned) [Compound 430]: the IC50 on pSTAT3 (pY705-STAT3) (PBMC, compound 3 hrs, then 10 ng/mL IL-6 for 10 min, MSD pY705-STAT3, read-out: pSTAT3) is more than 3 µM.

Turning to `CCCOC(=O)[C@H](C)N[P@@](=O)(Oc1ccccc1)[C@@H](F)c1ccc2sc(C(=O)N[C@H]3C[C@@H]4C[C@@H]4C[C@H]4CC[C@@H](C(=O)N5C[C@H](c6cccnc6)[C@@H](C#N)C56CC6)N4C3=O)cc2c1` (single isomer, unassigned) [Compound 431], the IC50 on pSTAT3 (pY705-STAT3) was more than 3 µM.

For `CCOc1ccncc1C1CN(C(=O)[C@@H]2CC[C@@H]3C[C@H]4C[C@H]4C[C@H](NC(=O)c4cc5cc([C@@H](F)P(=O)(O)O)ccc5s4)C(=O)N32)C1` [Example 420, ((S)-(2-(((3S,6S,7aS,8aR,9aR)-3-(3-(4-ethoxypyridin-3-yl)azetidine-1-carbonyl)-5-oxodecahydro-1H-cyclopropa[d]pyrrolo[1,2-a]azocin-6-yl)carbamoyl)benzo[b]thiophen-5-yl)fluoromethyl)phosphonic acid], the IC50 in experiment [1] was less than 0.1 µM; in experiment [2], 3 to 30 µM.

Consider `O=C(N[C@H]1C[C@@H]2C[C@@H]2C[C@H]2CC[C@@H](C(=O)N3CC(c4cnccc4N4CCC4)C3)N2C1=O)c1cc2cc([C@@H](F)P(=O)(O)O)ccc2s1` [Example 421, ((S)-(2-(((3S,6S,7aS,8aR,9aR)-3-(3-(4-(azetidin-1-yl)pyridin-3-yl)azetidine-1-carbonyl)-5-oxodecahydro-1H-cyclopropa[d]pyrrolo[1,2-a]azocin-6-yl)carbamoyl)benzo[b]thiophen-5-yl)fluoromethyl)phosphonic acid], for which the results for the IC50 in experiment [1] and in experiment [2] were less than 0.1 µM and 3 to 30 µM, respectively.

Regarding `CO[C@@H]1CCN(c2ccncc2C2CN(C(=O)[C@@H]3CC[C@@H]4C[C@H]5C[C@H]5C[C@H](NC(=O)c5cc6cc([C@@H](F)P(=O)(O)O)ccc6s5)C(=O)N43)C2)C1` [Example 422, ((S)-fluoro(2-(((3S,6S,7aS,8aR,9aR)-3-(3-(4-((R)-3-methoxypyrrolidin-1-yl)pyridin-3-yl)azetidine-1-carbonyl)-5-oxodecahydro-1H-cyclopropa[d]pyrrolo[1,2-a]azocin-6-yl)carbamoyl)benzo[b]thiophen-5-yl)methyl)phosphonic acid], the values for the IC50 in experiment [1] and in experiment [2] were less than 0.1 µM and 3 to 30 µM, respectively.

`COCC1(F)CN(c2ccncc2C2CN(C(=O)[C@@H]3CC[C@@H]4C[C@H]5C[C@H]5C[C@H](NC(=O)c5cc6cc([C@@H](F)P(=O)(O)O)ccc6s5)C(=O)N43)C2)C1` [Example 425, ((S)-fluoro(2-(((3S,6S,7aS,8aR,9aR)-3-(3-(4-(3-fluoro-3-(methoxymethyl)azetidin-1-yl)pyridin-3-yl)azetidine-1-carbonyl)-5-oxodecahydro-1H-cyclopropa[d]pyrrolo[1,2-a]azocin-6-yl)carbamoyl)benzo[b]thiophen-5-yl)methyl)phosphonic acid]: the IC50 in experiment [1] is less than 0.1 µM; in experiment [2] it was more than 30 µM.

With `Cn1ccc2cncc(C3CN(C(=O)[C@@H]4CC[C@@H]5C[C@H]6C[C@H]6C[C@H](NC(=O)c6cc7cc([C@@H](F)P(=O)(O)O)ccc7s6)C(=O)N54)C3)c21` [Example 427, ((S)-fluoro(2-(((3S,6S,7aS,8aR,9aR)-3-(3-(1-methyl-1H-pyrrolo[3,2-c]pyridin-7-yl)azetidine-1-carbonyl)-5-oxodecahydro-1H-cyclopropa[d]pyrrolo[1,2-a]azocin-6-yl)carbamoyl)benzo[b]thiophen-5-yl)methyl)phosphonic acid], the IC50 in experiment [1] lay in the range of 0.1 to 1 µM; in experiment [2], 0.3 to 3 µM.

As to `N#CC1CN(c2ccncc2C2CN(C(=O)[C@@H]3CC[C@@H]4C[C@H]5C[C@H]5C[C@H](NC(=O)c5cc6cc([C@@H](F)P(=O)(O)O)ccc6s5)C(=O)N43)C2)C1` [Example 428, ((S)-(2-(((3S,6S,7aS,8aR,9aR)-3-(3-(4-(3-cyanoazetidin-1-yl)pyridin-3-yl)azetidine-1-carbonyl)-5-oxodecahydro-1H-cyclopropa[d]pyrrolo[1,2-a]azocin-6-yl)carbamoyl)benzo[b]thiophen-5-yl)fluoromethyl)phosphonic acid], the IC50 in experiment [1] was less than 0.1 µM; in experiment [2], 3 to 30 µM.

For “((R)-fluoro(2-(((3S,6S,7aS,8aR,9aR)-3-(3-(morpholine-4-carbonyl)azetidine-1-carbonyl)-5-oxodecahydro-1H-cyclopropa[d]pyrrolo[1,2-a]azocin-6-yl)carbamoyl)benzo[b]thiophen-5-yl)methyl)phosphonic acid or ((S)-fluoro(2-(((3S,6S,7aS,8aR,9aR)-3-(3-(morpholine-4-carbonyl)azetidine-1-carbonyl)-5-oxodecahydro-1H-cyclopropa[d]pyrrolo[1,2-a]azocin-6-yl)carbamoyl)benzo[b]thiophen-5-yl)methyl)phosphonic acid [Compound 33]”, the values for the IC50 in experiment [1] and in experiment [2] were less than 0.1 µM and 3 to 30 µM, respectively.

For the compound “((S)-fluoro(2-(((3S,6S,7aS,8aR,9aR)-3-(3-(morpholine-4-carbonyl)azetidine-1-carbonyl)-5-oxodecahydro-1H-cyclopropa[d]pyrrolo[1,2-a]azocin-6-yl)carbamoyl)benzo[b]thiophen-5-yl)methyl)phosphonic acid Or ((R)-fluoro(2-(((3S,6S,7aS,8aR,9aR)-3-(3-(morpholine-4-carbonyl)azetidine-1-carbonyl)-5-oxodecahydro-1H-cyclopropa[d]pyrrolo[1,2-a]azocin-6-yl)carbamoyl)benzo[b]thiophen-5-yl)methyl)phosphonic acid [Compound 34]”, the IC50 in experiment [1] is 0.1 to 1 µM; in experiment [2], more than 30 µM.

With “(difluoro(2-(((3S,6S,7aR,8aS,9aR)-5-ox0-3-(3-(pyridin-2-yl)azetidine-1-carbonyl)decahydro-1H-cyclopropa[d]pyrrolo[1,2-a]azocin-6-yl)carbamoyl)benzo[b]thiophen-5-yl)methyl)phosphonic acid [Compound 106]”, the IC50 in experiment [1] is less than 0.1 µM; in experiment [2] it was 0.3 to 3 µM.

For “(difluoro(2-(((3S,6S,8aR,9aS,9bR)-3-(3-methoxy-3-(1-methyl-1H-imidazol-2-yl)azetidine-1-carbonyl)-8a-methyl-5-oxodecahydro-1H-cyclopropa[c]pyrrolo[1,2-a]azocin-6-yl)carbamoyl)benzo[b]thiophen-5-yl)methyl)phosphonic acid [Example 241]”, the IC50 in experiment [1] fell in the range of 0.1 to 1 µM; in experiment [2], 3 to 30 µM.
